These results are taken from article PMC7485652 (Saudi Journal of Medicine & Medical Sciences, 2020).

Like-named read-outs stand apart in the source and are kept apart here.

The conditions of series [1]: for plasma level of quetiapine / hmax: male rats; for hmax: mean±SD.
For series [2] the following is noted: cited from earlier work; for decrease of plasma concentration of quetiapine: administration of lamotrigine.
Series [3] deals with CYP3A4. As to conditions: cited from earlier work.
The conditions of series [4]: with probenecid, by inhibition of UGT glucuronidation enzymes; cited from earlier work.
Setting [5] is: quetiapine 50 mg/kg oral after probenecid 50 mg/kg oral.
The mark [6] stands for this setting: quetiapine alone, 50 mg/kg single oral dose.

Regarding `OCCOCCN1CCN(C2=Nc3ccccc3Sc3ccccc32)CC1` [Quetiapine], the “plasma level of quetiapine” value was 323 ± 128 ng/mL in series [1] (setting [5]) and 155 ± 37 ng/mL in series [1] (setting [6]). Further, the hmax in series [1] (setting [5]) worked out at 0.63 ± 0.3 h; in series [1] (setting [6]), 5 ± 2 h. The “difference in half-life of quetiapine between groups” value in series [1] (quetiapine plus probenecid vs quetiapine alone, rats) was “no significant difference”. Further, the results for the “decrease of plasma concentration of quetiapine” value in series [2] (study with 22 patients) and in series [2] (study with 144 patients) were 58% and 17%, respectively. The “increase of plasma level of quetiapine” value in series [2] (co-administered valproic acid, elderly patients) is listed as 77%. Also, the “increase of Cmax of quetiapine” value in series [2] (coadministered with sodium divalproex, adult patients, nonsignificant) is listed as 17%. Moreover, in series [2] (coadministered with sodium divalproex, adult patients), the “change in AUC τ of quetiapine” value is “no changes”. The “effect of coadministration on quetiapine” value in series [2] (coadministered with valproic acid, adult patients, ref Santoro et al. 20) is “nonsignificant results”.
Regarding `CCCC(CCC)C(=O)O` [Valproic acid], the “inhibition of CYP3A4” value in series [3] is on record as “weak inhibitor”.
Consider `Cc1cc2c(s1)Nc1ccccc1N=C2N1CCN(C)CC1` [olanzapine], for which the level of olanzapine result in series [4] is “increases”.
